Test results taken from US20240392302A1, “METHOD FOR DETECTING AND QUANTIFYING RNA” (FLUORESCENCE DIAGNOSIS (SHANGHAI) BIOTECH COMPANY LTD., priority 2021, published 2024).

System: F30-N16-1 RNA aptamer molecules
Test: Binding of F30-N16-1 RNA aptamer molecules with different fluorescent molecules (fluorescence spectrum, activation multiple)
Format: biochemical
Settings: for Maximum emission peak (nm) / Maximum excitation peak (nm): complex with F30-N16-1; for Activation Multiple: fluorophore with F30-N16-1
Experimental: Nucleic acid aptamer molecules of N16 or N16 mutants were prepared by using the commonly-used experimental method (I), 2.5 μM of nucleic acid aptamer molecules and 0.5 μM of fluorophore molecules were incubated in a detection buffer (40 mM of HEPES, pH 7.4, 125 mM of KCl, 5 mM of MgCl2, 5% DMSO), and the maximum excitation peak and the maximum emission peak of the fluorescence of the nucleic acid aptamer-fluorophore molecular complex were detected with Synergy Neo2 multifunctional enzyme-labeler. Synergy Neo2 multifunctional enzyme-labeler was used again to detect fluorescence intensity of the nucleic acid aptamer-fluorophore molecular complex under its maximum excitation and emission conditions, the control sample ([…] of fluorophore molecules without nucleic acid aptamer) was also measured under the same conditions, and the ratio of fluorescence intensity was calculated. For example, as for fluorescence of the complex formed by 2.5 μM of N16-1 nucleic acid aptamer and 0.5 μM of I-5-14 fluorophore molecules, the maximum excitation peak is 512 nm and the maximum emission peak is 574 nm. It was detected by the Synergy Neo2 multifunctional enzyme-labeler that the fluorescence intensity of the complex at an excitation condition of 512±10 nm and an emission condition of 574 nm±10 nm was 49,088, while the fluorescence intensity of the control (0.5 μM of I-5-14 fluorophore molecules) under the same detection conditions was 399, so the activation multiple of N16-1 nucleic acid aptamer to I-5-14 fluorophore molecules was 123.
F30-N16-1 RNA aptamer molecules were prepared by using the commonly-used experimental method (I), and were used for detecting basic properties, including fluorescence spectrum and fluorescence activation multiple, of the binding of I-5-14 analogues with N16.

SMILES | Maximum emission peak (nm) | Maximum excitation peak (nm) | Activation Multiple
CN(CCO)c1ccc(/C=C2\OC(=O)NC2=O)s1 [I-5-1] | 500 | 460 | 14
CN(CCNS(C)(=O)=O)c1ccc(/C=C2\SC(=O)NC2=S)s1 [I-5-3] | 580 | 550 | 14
CN(CCO)c1ccc(/C=C2\SC(=S)NC2=S)s1 [I-5-4] | 638 | 625 | 47
CCN1C(=O)S/C(=C\c2ccc(N(C)CCO)s2)C1=O [I-5-5] | 518 | 487 | 11
O=C1NC(=S)N/C1=C\c1ccc(N(CCO)CCO)s1 [I-5-6] | 550 | 536 | 23
CN1C(=O)O/C(=C\c2ccc(N(C)C)s2)C1=O [I-5-7] | 504 | 465 | 24
CN(C)c1ccc(/C=C2\SC(=O)NC2=S)s1 [I-5-8] | 582 | 554 | 15
CN(C)c1ccc(/C=C2\SC(=S)N(N)C2=O)s1 [I-5-9] | 578 | 552 | 17
CN(C)c1ccc(/C=C2\SC(=S)NC2=S)s1 [I-5-10] | 642 | 626 | 11
CN(C)c1ccc(/C=C2\SC(=O)NC2=O)s1 [I-5-11] | 524 | 493 | 9
CN(C)c1ccc(/C=C2\NC(=S)NC2=O)s1 [I-5-12] | 555 | 535 | 11
CCN1C(=O)O/C(=C\c2ccc(N(C)CCO)cc2)C1=O [I-5-13] | 492 | 393 | 8
CN(CCO)c1ccc(/C=C2\SC(=O)NC2=S)cc1 [I-5-15] | 598 | 567 | 31
CN(CCO)c1ccc(/C=C2\SC(=S)N(N)C2=S)cc1 [I-5-16] | 648 | 615 | 11
CN(CCO)c1ccc(/C=C2\SC(=O)NC2=O)cc1 [I-5-17] | 506 | 445 | 105
CN1C(=O)/C(=C/c2ccc(N(C)CCO)cc2)NC1=S [I-5-18] | 545 | 473 | 57
CN(C)c1ccc(/C=C2\OC(=O)N(N)C2=O)cc1 [I-5-19] | 499 | 397 | 18
CN(C)c1ccc(/C=C2\SC(=S)N(CCC(=O)O)C2=O)cc1 [I-5-20] | 565 | 493 | 22
CN(C)c1ccc(/C=C2\SC(=O)NC2=S)cc1 [I-5-21] | 605 | 569 | 24
CN(C)c1ccc(/C=C2\SC(=S)NC2=S)cc1 [I-5-22] | 657 | 613 | 126
CN(C)c1ccc(/C=C2\SC(=O)NC2=O)cc1 [I-5-23] | 515 | 433 | 156

Second part, the compound after the results:

Maximum emission peak (nm) | Maximum excitation peak (nm) | Activation Multiple | SMILES
543 | 473 | 7 | CN(C)c1ccc(/C=C2\NC(=S)NC2=O)cc1 [I-5-24]
502 | 403 | 6 | CN(CCO)c1ccc(/C=C2\OC(=O)N(CCC(=O)O)C2=O)c(F)c1 [I-5-25]
567 | 497 | 21 | CN(CCOC(=O)CCOCCO)c1ccc(/C=C2\SC(=S)NC2=O)c(Br)c1 [I-5-26]
603 | 565 | 11 | Cc1cc(N(C)CCNC(=O)CCOCCOCCO)ccc1/C=C1\SC(=O)NC1=S [I-5-27]
525 | 453 | 14 | CN1CCc2cc(/C=C3\SC(=O)NC3=O)ccc21 [I-5-29]
562 | 497 | 11 | CN1CCc2cc(/C=C3\NC(=S)NC3=O)c(Cl)cc21 [I-5-30]
610 | 503 | 125 | CN1C(=O)/C(=C/c2ccc3c(c2)SCCN3C)SC1=S [I-5-31]
625 | 519 | 15 | CN1C(=O)S/C(=C\c2ccc3c(c2)SCCN3C)C1=S [I-5-32]
553 | 442 | 154 | CN1CCSc2cc(/C=C3\SC(=O)NC3=O)ccc21 [I-5-33]
659 | 547 | 11 | CN1CCSc2cc(/C=C3\SC(=S)NC3=S)ccc21 [I-5-34]
585 | 487 | 10 | CCN1C(=O)/C(=C/c2ccc3c(c2)SCCN3C)NC1=S [I-5-35]
625 | 517 | 9 | CN1CCOc2cc(/C=C3\SC(=O)NC3=S)ccc21 [I-5-36]
603 | 497 | 256 | CN1CCOc2cc(/C=C3\SC(=S)NC3=O)ccc21 [I-5-37]
647 | 545 | 7 | CN1CCOc2cc(/C=C3\SC(=S)N(CCC(=O)O)C3=S)ccc21 [I-5-38]
509 | 429 | 14 | CN1CCCc2cc(/C=C3\SC(=O)NC3=O)ccc21 [I-5-39]
548 | 473 | 8 | CN1C(=O)/C(=C/c2ccc3c(c2)CCCN3C)NC1=S [I-5-40]
612 | 517 | 85 | CC1=CC(C)(C)N(C)c2ccc(/C=C3\SC(=S)NC3=O)cc21 [I-5-41]
627 | 527 | 11 | CC1=CC(C)(C)N(C)c2ccc(/C=C3\SC(=O)NC3=S)cc21 [I-5-42]
665 | 572 | 17 | CC1=CC(C)(C)N(C)c2ccc(/C=C3\SC(=S)NC3=S)cc21 [I-5-43]
549 | 459 | 21 | CCN1C(=O)S/C(=C\c2ccc3c(c2)C(C)=CC(C)(C)N3C)C1=O [I-5-44]
595 | 497 | 11 | CC1=CC(C)(C)N(C)c2ccc(/C=C3\NC(=S)NC3=O)cc21 [I-5-45]
633 | 542 | 7 | CN1C(=O)S/C(=C\c2cc3c4c(c2)CCCN4CCC3)C1=S [I-5-46]
607 | 529 | 245 | O=C1NC(=S)S/C1=C\c1cc2c3c(c1)CCCN3CCC2 [I-5-47]
675 | 579 | 6 | S=C1NC(=S)/C(=C/c2cc3c4c(c2)CCCN4CCC3)S1 [I-5-48]
539 | 469 | 1025 | O=C1NC(=O)/C(=C/c2cc3c4c(c2)CCCN4CCC3)S1 [I-5-49]
597 | 512 | 7 | O=C1NC(=S)N/C1=C\c1cc2c3c(c1)CCCN3CCC2 [I-5-50]
654 | 582 | 1125 | CN(C)c1cc2sc(/C=C3\SC(=S)NC3=O)cc2s1 [I-5-51]
725 | 686 | 7 | CN(C)c1cc2sc(/C=C3\SC(=S)NC3=S)cc2s1 [I-5-52]
593 | 518 | 1281 | CN(C)c1cc2sc(/C=C3\SC(=O)NC3=O)cc2s1 [I-5-53]
